Read-outs that look alike come from different tables or passages of the source.
Assays:
[1] = biological target: T1, CDK9 in complex with Cyclin K (Homo sapiens, UniProt P50750); experiment: HotSpot radiometric kinase assay; assay type: biochemical; details: 10-dose series from 0.5 nM to 10 µM; vs dinaciclib, KB-0742, atuveciclib
T1 construct: host or cells: HEK293
Protocol: We next compared VIP152 to other CDK inhibitors currently in development. […] The compounds were tested in a 10-dose series from 0.5 nM to 10 µM against CDK9 in complex with Cyclin T1/T2/K, CDK7/Cyclin H, and GSK3α/β. […]
HotSpot Kinase Assay Protocol
Compounds tested via HotSpot Kinase Assay were sent to ReactionBio for the experiment. The […]
Kinase substrate was added to reaction buffer (20 mM Hepes (pH 7.5), 10 mM MgCl2, 1 mM EGTA, 0.01% Brij35, 0.02 mg/ml BSA, 0.1 mM Na3VO4, 2 mM DTT, 1% DMSO). Cofactors and kinases were gently added to the reaction buffer. Compounds to be tested were dissolved in 100% DMSO and were delivered into the kinase reaction mixture by Acoustic technology (Echo550; nanoliter range) and incubated for 20 min at room temperature. 32P-ATP was delivered into the reaction mixture and the reaction was allowed to proceed for 2 hours. Kinase activity was detected by P81 filter-binding method.

[2] = biological target: CDK9 in complex with Cyclin T1 (Homo sapiens, UniProt P50750); experiment: NanoBRET target engagement assay (HEK293); assay type: cell-based
[3] = system: MEC-1; experiment: MTS proliferation assay; assay type: cell-based; details: Homo sapiens
[4] = system: treatment-naïve primary CLL samples; experiment: Annexin V/propidium iodide flow cytometry; assay type: cell-based; details: Homo sapiens; 10 treatment-naïve samples; read-out: IC50 (cytotoxic activity)
[5] = system: relapsed/refractory primary CLL samples; experiment: Annexin V/propidium iodide flow cytometry; assay type: cell-based; details: Homo sapiens; 8 BTKi/venetoclax relapsed/refractory samples; 24 h; read-out: IC50 (50% killing)
[6] = system: Calcium Channel L-Type Dihydropyridine; experiment: Eurofins Diversity Panel; assay type: binding; details: rat, Conc. 10 μM
[7] = biological target: Opiate δ1 (OP1, DOP) (Homo sapiens, UniProt P41143); experiment: Eurofins Diversity Panel; assay type: binding; details: hum, Conc. 10 μM
[8] = system: Purinergic P2Y; experiment: Eurofins Diversity Panel; assay type: binding; details: rat, Conc. 10 μM
[9] = biological target: T2, Sigma σ1 (Homo sapiens, UniProt Q99720); experiment: Eurofins Diversity Panel; assay type: binding; details: hum
T2 construct: purchased Eurofins
T2 sequence (Q99720 whole entry): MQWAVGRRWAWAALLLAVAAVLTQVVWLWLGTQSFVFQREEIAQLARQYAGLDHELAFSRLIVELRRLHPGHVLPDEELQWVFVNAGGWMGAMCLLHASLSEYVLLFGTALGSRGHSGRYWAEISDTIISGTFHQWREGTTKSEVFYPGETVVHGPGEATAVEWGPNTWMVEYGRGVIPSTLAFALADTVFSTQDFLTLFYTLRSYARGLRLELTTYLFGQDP

[10] = biological target: ROCK1 (Homo sapiens, UniProt Q13464); experiment: KINOMEscan: ROCK1; assay type: binding; details: 100 nM, read-out: Percent Control
Chain of ROCK1 (Q13464 whole entry): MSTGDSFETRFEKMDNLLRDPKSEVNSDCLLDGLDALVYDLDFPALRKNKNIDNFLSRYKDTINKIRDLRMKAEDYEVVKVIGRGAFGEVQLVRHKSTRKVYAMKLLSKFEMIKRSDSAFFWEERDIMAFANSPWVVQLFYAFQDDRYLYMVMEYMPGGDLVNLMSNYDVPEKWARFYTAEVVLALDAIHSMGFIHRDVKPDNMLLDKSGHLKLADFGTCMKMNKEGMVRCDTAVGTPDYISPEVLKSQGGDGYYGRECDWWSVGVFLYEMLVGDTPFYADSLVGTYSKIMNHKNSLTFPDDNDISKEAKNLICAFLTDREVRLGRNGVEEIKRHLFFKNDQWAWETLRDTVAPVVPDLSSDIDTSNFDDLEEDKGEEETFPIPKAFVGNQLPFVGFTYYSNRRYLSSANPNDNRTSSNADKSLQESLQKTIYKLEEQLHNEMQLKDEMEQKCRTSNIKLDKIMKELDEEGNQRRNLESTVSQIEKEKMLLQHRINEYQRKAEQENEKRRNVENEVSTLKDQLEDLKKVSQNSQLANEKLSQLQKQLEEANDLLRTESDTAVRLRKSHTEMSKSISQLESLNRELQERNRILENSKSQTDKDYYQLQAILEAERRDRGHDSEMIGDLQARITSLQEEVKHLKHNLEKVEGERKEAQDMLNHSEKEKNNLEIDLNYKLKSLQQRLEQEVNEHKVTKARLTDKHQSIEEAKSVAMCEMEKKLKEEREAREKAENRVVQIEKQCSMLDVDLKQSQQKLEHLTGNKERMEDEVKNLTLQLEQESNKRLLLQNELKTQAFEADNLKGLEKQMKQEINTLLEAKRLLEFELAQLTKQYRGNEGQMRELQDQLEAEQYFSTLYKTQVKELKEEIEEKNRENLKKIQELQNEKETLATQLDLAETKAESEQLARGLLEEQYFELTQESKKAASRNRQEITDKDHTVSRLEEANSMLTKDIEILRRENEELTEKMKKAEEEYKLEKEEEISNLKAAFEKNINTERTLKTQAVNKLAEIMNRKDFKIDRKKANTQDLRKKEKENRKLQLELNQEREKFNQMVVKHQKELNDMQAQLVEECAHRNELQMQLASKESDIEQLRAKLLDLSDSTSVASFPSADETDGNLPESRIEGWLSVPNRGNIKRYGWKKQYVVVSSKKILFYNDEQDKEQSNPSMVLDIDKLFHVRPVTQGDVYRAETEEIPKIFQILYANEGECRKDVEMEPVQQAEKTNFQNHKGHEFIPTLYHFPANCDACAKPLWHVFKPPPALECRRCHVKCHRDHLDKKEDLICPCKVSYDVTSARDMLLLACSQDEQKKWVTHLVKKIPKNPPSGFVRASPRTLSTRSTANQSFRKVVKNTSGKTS

[11] = biological target: RSK2(Kin.Dom.2-C-terminal) (Homo sapiens, UniProt P51812); experiment: KINOMEscan: RSK2(Kin.Dom.2-C-terminal); assay type: binding; details: 100 nM, read-out: Percent Control
Chain of RSK2(Kin.Dom.2-C-terminal) (P51812 398-740 limits assumed): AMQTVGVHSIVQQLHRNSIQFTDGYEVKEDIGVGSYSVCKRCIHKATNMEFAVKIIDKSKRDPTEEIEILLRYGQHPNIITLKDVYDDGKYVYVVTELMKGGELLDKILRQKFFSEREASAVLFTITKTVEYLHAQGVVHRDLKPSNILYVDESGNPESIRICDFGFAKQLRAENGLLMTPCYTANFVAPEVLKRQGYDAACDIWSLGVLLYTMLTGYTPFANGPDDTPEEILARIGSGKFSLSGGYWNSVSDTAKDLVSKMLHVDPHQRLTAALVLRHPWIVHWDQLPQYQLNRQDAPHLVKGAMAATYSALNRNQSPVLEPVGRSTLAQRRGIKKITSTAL

[12] = biological target: RSK4(Kin.Dom.1-N-terminal) (Homo sapiens, UniProt Q9UK32); experiment: KINOMEscan: RSK4(Kin.Dom.1-N-terminal); assay type: binding; details: 100 nM, read-out: Percent Control
[13] = biological target: SGK3 (Homo sapiens, UniProt Q96BR1); experiment: KINOMEscan: SGK3; assay type: binding; details: 100 nM, read-out: Percent Control
[14] = biological target: TAOK1 (Homo sapiens, UniProt Q7L7X3); experiment: KINOMEscan: TAOK1; assay type: binding; details: 100 nM, read-out: Percent Control
[15] = biological target: TLK2 (Homo sapiens, UniProt Q86UE8); experiment: KINOMEscan: TLK2; assay type: binding; details: 100 nM, read-out: Percent Control
[16] = biological target: TSSK3 (Homo sapiens, UniProt Q96PN8); experiment: KINOMEscan: TSSK3; assay type: binding; details: 100 nM, read-out: Percent Control
[17] = biological target: ULK1 (Homo sapiens, UniProt O75385); experiment: KINOMEscan: ULK1; assay type: binding; details: 100 nM, read-out: Percent Control
[18] = biological target: WNK2 (Homo sapiens, UniProt Q9Y3S1); experiment: KINOMEscan: WNK2; assay type: binding; details: 100 nM, read-out: Percent Control
Chain of WNK2 (Q9Y3S1 whole entry): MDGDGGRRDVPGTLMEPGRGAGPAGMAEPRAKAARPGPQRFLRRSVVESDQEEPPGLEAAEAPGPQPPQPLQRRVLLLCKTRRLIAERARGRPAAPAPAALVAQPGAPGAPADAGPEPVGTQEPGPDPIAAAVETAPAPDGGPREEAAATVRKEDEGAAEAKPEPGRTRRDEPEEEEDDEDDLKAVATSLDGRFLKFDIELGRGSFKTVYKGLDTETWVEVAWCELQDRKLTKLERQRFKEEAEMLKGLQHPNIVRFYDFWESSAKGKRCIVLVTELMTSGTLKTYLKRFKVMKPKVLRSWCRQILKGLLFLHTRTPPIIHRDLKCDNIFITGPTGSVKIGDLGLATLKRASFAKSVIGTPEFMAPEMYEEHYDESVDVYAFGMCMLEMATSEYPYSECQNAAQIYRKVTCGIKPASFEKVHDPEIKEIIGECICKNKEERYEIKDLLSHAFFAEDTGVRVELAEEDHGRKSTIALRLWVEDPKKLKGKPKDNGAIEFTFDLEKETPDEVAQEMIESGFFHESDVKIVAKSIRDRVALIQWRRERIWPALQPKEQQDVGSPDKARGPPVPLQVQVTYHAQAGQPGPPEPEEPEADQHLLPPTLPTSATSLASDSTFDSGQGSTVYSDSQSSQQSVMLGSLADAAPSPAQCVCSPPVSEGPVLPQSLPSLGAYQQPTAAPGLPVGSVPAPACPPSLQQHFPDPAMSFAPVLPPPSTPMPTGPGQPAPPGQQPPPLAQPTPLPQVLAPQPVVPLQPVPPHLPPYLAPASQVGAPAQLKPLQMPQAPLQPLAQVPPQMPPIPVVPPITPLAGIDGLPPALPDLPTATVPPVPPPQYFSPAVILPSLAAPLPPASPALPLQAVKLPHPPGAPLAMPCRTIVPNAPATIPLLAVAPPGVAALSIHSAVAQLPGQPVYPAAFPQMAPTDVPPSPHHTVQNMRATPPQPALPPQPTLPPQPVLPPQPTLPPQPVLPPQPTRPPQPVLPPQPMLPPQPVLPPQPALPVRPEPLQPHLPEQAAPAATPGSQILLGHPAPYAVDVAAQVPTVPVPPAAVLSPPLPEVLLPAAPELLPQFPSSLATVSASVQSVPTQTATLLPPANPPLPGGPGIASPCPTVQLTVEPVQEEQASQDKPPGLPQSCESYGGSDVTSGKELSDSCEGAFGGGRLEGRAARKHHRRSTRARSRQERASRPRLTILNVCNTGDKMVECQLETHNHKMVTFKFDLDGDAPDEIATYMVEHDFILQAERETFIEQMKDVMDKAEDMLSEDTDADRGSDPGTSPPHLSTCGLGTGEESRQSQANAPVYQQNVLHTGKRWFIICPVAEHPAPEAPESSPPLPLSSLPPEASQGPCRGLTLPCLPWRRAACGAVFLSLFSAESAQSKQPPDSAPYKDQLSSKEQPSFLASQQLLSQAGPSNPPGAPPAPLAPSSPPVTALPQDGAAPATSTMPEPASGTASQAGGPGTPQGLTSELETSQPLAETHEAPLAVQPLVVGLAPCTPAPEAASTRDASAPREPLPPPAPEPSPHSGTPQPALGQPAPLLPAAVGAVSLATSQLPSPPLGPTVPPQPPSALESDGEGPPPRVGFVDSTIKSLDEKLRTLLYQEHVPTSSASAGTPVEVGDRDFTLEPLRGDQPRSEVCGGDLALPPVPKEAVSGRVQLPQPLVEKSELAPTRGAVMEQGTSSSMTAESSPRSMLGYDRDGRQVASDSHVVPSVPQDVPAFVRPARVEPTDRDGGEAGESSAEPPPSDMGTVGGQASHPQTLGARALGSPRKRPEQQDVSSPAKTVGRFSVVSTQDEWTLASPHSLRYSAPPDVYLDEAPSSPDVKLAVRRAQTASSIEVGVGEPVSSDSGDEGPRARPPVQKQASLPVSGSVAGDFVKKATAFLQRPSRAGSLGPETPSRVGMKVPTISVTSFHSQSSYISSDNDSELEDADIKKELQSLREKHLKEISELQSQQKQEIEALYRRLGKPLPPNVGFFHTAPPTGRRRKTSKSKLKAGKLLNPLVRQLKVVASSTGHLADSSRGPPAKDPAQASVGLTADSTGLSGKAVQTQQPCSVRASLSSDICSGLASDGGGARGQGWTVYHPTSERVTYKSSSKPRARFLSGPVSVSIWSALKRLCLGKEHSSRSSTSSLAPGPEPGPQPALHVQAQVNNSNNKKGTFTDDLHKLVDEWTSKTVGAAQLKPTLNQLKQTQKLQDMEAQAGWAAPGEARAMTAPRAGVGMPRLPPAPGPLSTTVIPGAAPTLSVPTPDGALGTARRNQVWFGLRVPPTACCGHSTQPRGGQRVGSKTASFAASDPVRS

[19] = biological target: CAMK1B (Homo sapiens, UniProt Q6P2M8); experiment: KINOMEscan: CAMK1B; assay type: binding; details: 1000 nM, read-out: Percent Control
[20] = biological target: CAMKK2 (Homo sapiens, UniProt Q96RR4); experiment: KINOMEscan: CAMKK2; assay type: binding; details: 1000 nM, read-out: Percent Control
[21] = biological target: CDK2 (Homo sapiens, UniProt P24941); experiment: KINOMEscan: CDK2; assay type: binding; details: 1000 nM, read-out: Percent Control
[22] = biological target: CSNK1A1 (Homo sapiens, UniProt P48729); experiment: KINOMEscan: CSNK1A1; assay type: binding; details: 1000 nM, read-out: Percent Control
Chain of CSNK1A1 (P48729 whole entry): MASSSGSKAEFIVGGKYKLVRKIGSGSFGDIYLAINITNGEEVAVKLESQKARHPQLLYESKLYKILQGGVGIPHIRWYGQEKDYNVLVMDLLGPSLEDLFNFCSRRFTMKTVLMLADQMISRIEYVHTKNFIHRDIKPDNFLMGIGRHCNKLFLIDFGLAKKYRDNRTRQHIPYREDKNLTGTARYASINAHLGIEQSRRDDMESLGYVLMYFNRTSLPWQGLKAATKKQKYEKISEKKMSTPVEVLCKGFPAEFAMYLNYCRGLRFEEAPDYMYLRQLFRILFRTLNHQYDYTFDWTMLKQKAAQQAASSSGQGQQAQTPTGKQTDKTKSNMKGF

[23] = biological target: DRAK2 (Homo sapiens, UniProt O94768); experiment: KINOMEscan: DRAK2; assay type: binding; details: 1000 nM, read-out: Percent Control
[24] = biological target: EGFR(G719C) (Homo sapiens, UniProt P00533, G719C); experiment: KINOMEscan: EGFR(G719C); assay type: binding; details: 1000 nM, read-out: Percent Control
[25] = biological target: EGFR(L858R) (Homo sapiens, UniProt P00533, L858R); experiment: KINOMEscan: EGFR(L858R); assay type: binding; details: 1000 nM, read-out: Percent Control
[26] = biological target: EIF2AK1 (Homo sapiens, UniProt Q9BQI3); experiment: KINOMEscan: EIF2AK1; assay type: binding; details: 1000 nM, read-out: Percent Control
[27] = biological target: EPHA4 (Homo sapiens, UniProt P54764); experiment: KINOMEscan: EPHA4; assay type: binding; details: 1000 nM, read-out: Percent Control
[28] = biological target: ERK5 (Homo sapiens, UniProt Q13164); experiment: KINOMEscan: ERK5; assay type: binding; details: 1000 nM, read-out: Percent Control
[29] = biological target: FGR (Homo sapiens, UniProt P09769); experiment: KINOMEscan: FGR; assay type: binding; details: 1000 nM, read-out: Percent Control
Chain of FGR (P09769 whole entry): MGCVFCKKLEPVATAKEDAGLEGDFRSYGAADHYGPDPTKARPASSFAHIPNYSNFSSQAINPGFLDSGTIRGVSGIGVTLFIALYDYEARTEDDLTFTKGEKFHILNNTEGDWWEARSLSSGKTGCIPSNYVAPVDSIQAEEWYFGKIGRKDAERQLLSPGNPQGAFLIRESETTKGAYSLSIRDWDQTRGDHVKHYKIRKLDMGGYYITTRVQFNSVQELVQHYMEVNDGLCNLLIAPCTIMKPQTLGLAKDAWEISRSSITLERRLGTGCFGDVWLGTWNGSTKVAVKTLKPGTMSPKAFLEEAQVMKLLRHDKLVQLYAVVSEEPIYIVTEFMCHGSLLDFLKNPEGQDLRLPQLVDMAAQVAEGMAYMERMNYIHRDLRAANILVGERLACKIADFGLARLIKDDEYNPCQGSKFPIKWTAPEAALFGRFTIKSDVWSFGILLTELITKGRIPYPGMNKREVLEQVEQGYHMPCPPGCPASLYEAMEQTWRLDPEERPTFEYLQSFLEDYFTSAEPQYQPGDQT

[30] = biological target: FLT3-autoinhibited (Homo sapiens, UniProt P36888); experiment: KINOMEscan: FLT3-autoinhibited; assay type: binding; details: 1000 nM, read-out: Percent Control
[31] = biological target: MAP4K4 (Homo sapiens, UniProt O95819); experiment: KINOMEscan: MAP4K4; assay type: binding; details: 1000 nM, read-out: Percent Control
[32] = biological target: MARK1 (Homo sapiens, UniProt Q9P0L2); experiment: KINOMEscan: MARK1; assay type: binding; details: 1000 nM, read-out: Percent Control
[33] = set-up: method as in PMID 35046056; details: human, cited from earlier work

With COc1cc(F)ccc1-c1cc(Nc2cc(CS(C)(=N)=O)ccn2)ncc1F (centres unmarked) [VIP152] the “potency versus the other inhibitors tested” value [1] was “higher potency”, the “potency versus the other inhibitors” value [2] was “higher potency” and the IC50 ([3]; MEC1, 24, 48, and 72 h, read-out: proliferation IC50) was 150 to 1000 nM. The IC50 ([3]; MEC1, two-hour drugging followed by washout, MTS after 72 h, read-out: 50% growth inhibition) was 1700 nM, the IC50 [4] was less than 100 nM and the IC50 [5] was roughly 1000 nM. For the same compound, the “% Inh.” value [6] was 7%, the inhibition at 10 µM [7] was 9% and the “% Inh.” value [8] was 8%. It also gave an IC50 [9] of 1780 nM, a Ki [9] of 750 nM and a nH [9] of 0.75. The inhibition at 10 µM ([9]; Conc. 10 μM) was 71%, the remaining binding at 0.1 µM [10] was 100% and the remaining binding at 0.1 µM [11] was 100%. For the same compound, the remaining binding at 0.1 µM [12] was 100%, the remaining binding at 0.1 µM [13] was 100% and the remaining binding at 0.1 µM [14] was 92%. It also gave a remaining binding at 0.1 µM [15] of 100%, a remaining binding at 0.1 µM [16] of 96% and a remaining binding at 0.1 µM [17] of 93%. The remaining binding at 0.1 µM [18] was 100%, the remaining binding at 1 µM [19] was 98% and the remaining binding at 1 µM [20] was 16%. For the same compound, the remaining binding at 1 µM [21] was 51%, the remaining binding at 1 µM [22] was 95% and the remaining binding at 1 µM [23] was 100%. The remaining binding at 1 µM [24] was 97%, the remaining binding at 1 µM [25] was 76% and the remaining binding at 1 µM [26] was 100%. For the same compound, the remaining binding at 1 µM [27] was 94%, the remaining binding at 1 µM [28] was 95% and the remaining binding at 1 µM [29] was 66%. It also gave a remaining binding at 1 µM [30] of 76%, a remaining binding at 1 µM [31] of 44% and a remaining binding at 1 µM [32] of 89%. The Cmax [33] was 836 ng/mL and the Cmax ([33]; read-out: Cmax, corresponding concentration) was 2000 nM.

Reference: paper PMC9898036, “VIP152 is a selective CDK9 inhibitor with pre-clinical in vitro and in vivo efficacy in chronic lymphocytic leukemia” (Leukemia, 2022)
